Reference: patent publication US9561168B2, “Oral care compositions” (Colgate-Palmolive Company, priority 2011, dated 2017)

Experiments:
[1] = tested on: single species Actinomyces viscosus biofilms; test: Inhibition of single species Actinomyces viscosus biofilm formation; format: cell-based; details: single species A. viscosus biofilm
Procedure: (§1) Mixed species bacteria are grown as follows: Actinomyces viscosus (ATCC #31346) is grown in trypticase soy broth supplemented with 0.6% yeast extract (TSB-YE) at 37° C., static culture. For mixed species assays, the source of bacteria is a continuous culture chemostat inoculated with A. viscosus, Lactobacillus casei (ATCC #334), Streptococcus oralis (ATCC #35037), Fusobacterium nucleatum (ATCC #10953), and Veilonella parvula (ATCC #17745). This mixed culture is maintained in a specialized complex medium in a continuous culture chemostat at 37° C.

Actinomyces viscosus = test: Minimum inhibitory concentration (MIC) against Actinomyces viscosus; format: cell-based
Procedure: as §1
Gallium nitrate is assessed in oral biofilm models. […] The advantage of gallium over other agents is that it appears to target the relatively starved bacteria found deeper in the biofilms that are usually less accessible to traditional antimicrobial agents.

[2] = antimicrobial agents currently in use in oral formulations; organism not stated; cited from earlier work
[3] = tested on: five species biofilm (A. viscosus, Lactobacillus casei, Streptococcus oralis, Fusobacterium nucleatum, Veilonella parvula); test: Mixed (five) species biofilm test on saliva-coated HAP disks; format: cell-based; details: 250 ppm of ε-polylysine
Procedure: Mixed species biofilms are preformed on saliva-coated HAP disks (scHAP). Following saliva coating, disks are inoculated with 1 ml of mixed species culture from the continuous culture chemostat described above diluted to an OD610 of ˜0.2 in 0.5×TSB. Plates are incubated for 48 h at 37° C. to allow biofilms to form.
Disks containing preformed biofilms are transferred to a fresh 24-well culture plate and 1 ml of sterile 0.5×TSB medium containing the indicted concentration of test compound is added to each disk. Plates are incubated for 1 h at 37° C. with gentle agitation. […] Plates are sonicated for 2 min to pellet any residual HAP and supernatants are removed to fresh plates so that absorbance could be read at 610 nm.
All samples are tested in triplicate and the average of the three wells determined.

[4] = tested on: other oral bacterial species tested; test: Antimicrobial activity against other oral bacterial species; format: cell-based; details: any other oral bacterial species tested (other than A. viscosus)

| Molecule | concentration able to inhibit formation of single species biofilms [1] | minimum inhibitory concentration (MIC) (Actinomyces viscosus) | MTC values [2] | inhibition of multispecies biofilm formation [3] | antimicrobial activity against other oral bacterial species [4] |
| --- | --- | --- | --- | --- | --- |
| O=[N+]([O-])[O-].O=[N+]([O-])[O-].O=[N+]([O-])[O-].[Ga+3] [gallium nitrate] | 30 ppm | approximately 60 ppm | – | – | – |
| Oc1cc(Cl)ccc1Oc1ccc(Cl)cc1Cl [triclosan] | – | – | less than 10 ppm | – | – |
| ε-Polylysine | < 1 ppm | < 1 ppm | – | less than 20% | does not have antimicrobial activity |
